This note sets out measurements from patent US20240058422A1, “GLUCAGON-LIKE PEPTIDE-1 RECEPTOR ANTAGONISTS” (INDIANA UNIVERSITY RESEARCH AND TECHNOLOGY CORPORATION, priority 2022, published 2024).

One data set is described as follows: Solubility in buffer. To be noted: 80 mM ammonium bicarbonate buffer.
The target in another data set is GLP-1R (Homo sapiens, UniProt P43220). As to the kind of experiment: GLP-1 receptor-mediated cAMP induction, luciferase reporter gene antagonism assay. The format is cell-based. The arrangement: host or cells: HEK 293. To be noted: antagonism of 0.05 nM GLP-1, HEK 293 cells. The procedure: GLP-1 Receptor-Mediated cAMP Induction The ability of peptides to stimulate or block cAMP induction at the GLP-1 receptor was examined by a luciferase-based reporter gene assay. Cotransfection of HEK 293 cells with the human GLP-1 receptor (Open Biosystems) and a cAMPinducible (cAMPresponsive element) luciferase gene constituted the cellular construct where receptor activation could be measured. Bioassays were performed by first serum depriving the cells for 16 h in 0.25% bovine growth serum (HyClone)-supplemented Dulbecco's modified Eagle's medium (Invitrogen) and then adding serial dilutions of the peptides over the appropriate concentration ranges in 96-well poly-D-lysine-coated plates (BD Biosciences). For antagonism assays, a constant concentration of GLP-1 (0.05 nM) was added to the assay plate after the diluted peptides. Incubation continued for 5 h at 37° C., 5% CO2 and was followed by the addition of an equivalent volume (100 μL) of LucLite luminescence substrate reagent (Perkin-Elmer). MicroBeta 1450 liquid scintillation counting (Perkin-Elmer) quantified the luminescence signal in counts per second (cps) after shaking the plate at 600 rpm for 3 min. Data was plotted using Origin software (OriginLab) and the effective concentration 50 (EC50) or inhibitory concentration 50 (IC50) was determined by sigmoidal fitting. Potency was determined by comparative analysis of relative EC50 or IC50 values. Each experiment was repeated at least three times with each sample assayed in duplicate.
Chain of GLP-1R (P43220 24-463): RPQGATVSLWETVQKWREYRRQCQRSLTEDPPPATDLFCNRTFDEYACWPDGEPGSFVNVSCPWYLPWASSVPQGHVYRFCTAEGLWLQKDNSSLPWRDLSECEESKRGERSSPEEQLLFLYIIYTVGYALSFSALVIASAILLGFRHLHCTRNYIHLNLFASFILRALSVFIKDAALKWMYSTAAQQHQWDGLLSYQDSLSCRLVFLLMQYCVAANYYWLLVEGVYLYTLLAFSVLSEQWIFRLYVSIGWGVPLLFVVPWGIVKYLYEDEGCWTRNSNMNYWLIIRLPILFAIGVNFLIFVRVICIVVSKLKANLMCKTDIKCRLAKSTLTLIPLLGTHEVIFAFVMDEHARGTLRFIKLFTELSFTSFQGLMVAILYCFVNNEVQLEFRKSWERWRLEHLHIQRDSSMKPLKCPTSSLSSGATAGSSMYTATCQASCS
In general terms: Reporter assays use an easily measured gene product as a stand-in for the process of interest.

The mark [1] stands for this setting: Table 5, d-AA variants of 9-40am Jant4 K40[C16], read-out: Bioactivity KC50.
Setting [2] is: Table 3, amino acid substitution variants of Jant4-K40, read-out: Bioactivity IC50.

SMILES strings stand for the structures. Converted amounts (≈) assume the structure as drawn. Like-named read-outs stand apart in the source and are kept apart here. Starred links: 1 amine or outer side, 2 acyl side, 3 side chain; linkers in the order of their positions; H or OH if unused. Non-standard residues stand in square brackets, D forms with d. Residues, ends and D or L forms follow the SMILES beside them. Groups on a side chain read outwards from the residue. *: point of attachment. γGlu = O=C(O)[C@H](CCC(=O)[*:2])N[*:1]; Palmitoyl = CCCCCCCCCCCCCCCC(=O)*

By solubility is commonly meant how much of the substance goes into solution per volume. Read a low solubility as little dissolved substance.

`CCCCCCCCCCCCCCCC(=O)NCCCC[C@H](NC(=O)[C@H](CO)NC(=O)[C@@H]1CCCN1C(=O)[C@@H]1CCCN1C(=O)[C@@H]1CCCN1C(=O)[C@H](C)NC(=O)CNC(=O)[C@H](CO)NC(=O)[C@H](CO)NC(=O)[C@@H]1CCCN1C(=O)CNC(=O)CNC(=O)[C@H](CCCCN)NC(=O)[C@@H](NC(=O)[C@H](CC(C)C)NC(=O)[C@H](Cc1c[nH]c2ccccc12)NC(=O)[C@H](C)NC(=O)[C@@H](NC(=O)[C@H](Cc1ccccc1)NC(=O)[C@H](CCC(=O)O)NC(=O)[C@H](CCCNC(=N)N)NC(=O)[C@@H](NC(=O)[C@H](C)NC(=O)[C@H](CCC(N)=O)NC(=O)[C@@H](CCC(=O)O)NC(=O)[C@H](CCC(=O)O)NC(=O)[C@H](CC(C)C)NC(=O)[C@H](Cc1ccc(O)cc1)NC(=O)[C@H](CO)NC(=O)[C@H](CO)NC(=O)[C@@H](NC(=O)[C@@H](N)CC(=O)O)C(C)C)C(C)C)[C@@H](C)CC)C(C)C)C(N)=O` [compound 85] (H-DVSSYLE[dE]QAVREFIAWLVKGGPSSGAPPPSK(Palmitoyl)-NH2; N-terminus assumed) gave a solubility in the data set “Solubility in buffer” (pH 7.7) of 10.7 mg/mL (≈ 2.94 mM). The IC50 at GLP-1R (setting [1]) amounted to 41 nM.

Consider `CCCCCCCCCCCCCCCC(=O)NCCCC[C@H](NC(=O)[C@H](CO)NC(=O)[C@@H]1CCCN1C(=O)[C@@H]1CCCN1C(=O)[C@@H]1CCCN1C(=O)[C@H](C)NC(=O)CNC(=O)[C@H](CO)NC(=O)[C@H](CO)NC(=O)[C@@H]1CCCN1C(=O)CNC(=O)CNC(=O)[C@H](CCCCN)NC(=O)[C@@H](NC(=O)[C@H](CC(C)C)NC(=O)[C@H](Cc1c[nH]c2ccccc12)NC(=O)[C@H](C)NC(=O)[C@@H](NC(=O)[C@H](Cc1ccccc1)NC(=O)[C@H](CCC(=O)O)NC(=O)[C@H](CCCNC(=N)N)NC(=O)[C@@H](NC(=O)[C@H](C)NC(=O)[C@H](CCC(N)=O)NC(=O)[C@H](CCC(=O)O)NC(=O)[C@@H](CCC(=O)O)NC(=O)[C@H](CC(C)C)NC(=O)[C@H](Cc1ccc(O)cc1)NC(=O)[C@H](CO)NC(=O)[C@H](CO)NC(=O)[C@@H](NC(=O)[C@@H](N)CC(=O)O)C(C)C)C(C)C)[C@@H](C)CC)C(C)C)C(N)=O` [compound 49] (H-DVSSYL[dE]EQAVREFIAWLVKGGPSSGAPPPSK(Palmitoyl)-NH2; N-terminus assumed), for which, in the data set “Solubility in buffer” (pH 7.7, Solubility [mg/mL] 80 mM/AmBicarb pH7.7, Table 5, 80 mM AmBicarb pH7.7), the solubility was > 20 mg/mL. For the same compound, the IC50 on GLP-1R (setting [1]) came to 23 nM.

`CCCCCCCCCCCCCCCC(=O)NCCCC[C@H](NC(=O)[C@H](CO)NC(=O)[C@@H]1CCCN1C(=O)[C@@H]1CCCN1C(=O)[C@@H]1CCCN1C(=O)[C@H](C)NC(=O)CNC(=O)[C@H](CO)NC(=O)[C@H](CO)NC(=O)[C@@H]1CCCN1C(=O)CNC(=O)CNC(=O)[C@H](CCCCN)NC(=O)[C@@H](NC(=O)[C@H](CC(C)C)NC(=O)[C@H](Cc1c[nH]c2ccccc12)NC(=O)[C@H](C)NC(=O)[C@@H](NC(=O)[C@H](Cc1ccccc1)NC(=O)[C@@H](CCC(=O)O)NC(=O)[C@H](CCCNC(=N)N)NC(=O)[C@@H](NC(=O)[C@H](C)NC(=O)[C@H](CCC(N)=O)NC(=O)[C@H](CCC(=O)O)NC(=O)[C@H](CCC(=O)O)NC(=O)[C@H](CC(C)C)NC(=O)[C@H](Cc1ccc(O)cc1)NC(=O)[C@H](CO)NC(=O)[C@H](CO)NC(=O)[C@@H](NC(=O)[C@@H](N)CC(=O)O)C(C)C)C(C)C)[C@@H](C)CC)C(C)C)C(N)=O` [compound 88] (H-DVSSYLEEQAVR[dE]FIAWLVKGGPSSGAPPPSK(Palmitoyl)-NH2) gave a solubility in the data set “Solubility in buffer” (pH 7.7) of 1.7 mg/mL (≈ 0.467 mM). On GLP-1R (setting [1]), the IC50 worked out at 27 nM.

With `CCCCCCCCCCCCCCCC(=O)N[C@@H](CCC(=O)N[C@@H](CCC(=O)N[C@@H](CCC(=O)N[C@@H](CCC(=O)NCCCC[C@H](NC(=O)[C@H](CO)NC(=O)[C@@H]1CCCN1C(=O)[C@@H]1CCCN1C(=O)[C@@H]1CCCN1C(=O)[C@H](C)NC(=O)CNC(=O)[C@H](CO)NC(=O)[C@H](CO)NC(=O)[C@@H]1CCCN1C(=O)CNC(=O)CNC(=O)[C@H](CCCCN)NC(=O)[C@@H](NC(=O)[C@H](CC(C)C)NC(=O)[C@H](Cc1c[nH]c2ccccc12)NC(=O)[C@H](C)NC(=O)[C@@H](NC(=O)[C@H](Cc1ccccc1)NC(=O)[C@H](CCC(=O)O)NC(=O)[C@H](CCCNC(=N)N)NC(=O)[C@@H](NC(=O)[C@H](C)NC(=O)[C@H](CCC(N)=O)NC(=O)[C@H](CCC(=O)O)NC(=O)[C@H](CCC(=O)O)NC(=O)[C@H](CC(C)C)NC(=O)[C@H](Cc1ccc(O)cc1)NC(=O)[C@H](CO)NC(=O)[C@H](CO)NC(=O)[C@@H](NC(=O)[C@@H](N)CC(=O)O)C(C)C)C(C)C)[C@@H](C)CC)C(C)C)C(N)=O)C(=O)O)C(=O)O)C(=O)O)C(=O)O` [compound 54] (H-DVSSYLEEQAVREFIAWLVKGGPSSGAPPPSK([γGlu-γGlu-γGlu-γGlu-Palmitoyl])-NH2), the solubility in “Solubility in buffer” (pH 7.7, Solubility [mg/mL] 80 mM AmBicarb pH7.7, Table 2, 80 mM AmBicarb pH7.7) is > 20 mg/mL. For the same compound, on GLP-1R (Table 2, C16 linker variants of 9-40amide Jant4 K40[X], read-out: Biactivity IC50), the IC50 was 21 nM.

For `CCCCCCCCCCCCCCCC(=O)NCCCC[C@H](NC(=O)[C@H](CO)NC(=O)[C@@H]1CCCN1C(=O)[C@@H]1CCCN1C(=O)[C@@H]1CCCN1C(=O)[C@H](C)NC(=O)CNC(=O)[C@H](CO)NC(=O)[C@H](CO)NC(=O)[C@@H]1CCCN1C(=O)CNC(=O)CNC(=O)[C@H](CCCNC(=N)N)NC(=O)[C@@H](NC(=O)[C@H](CC(C)C)NC(=O)[C@H](Cc1c[nH]c2ccccc12)NC(=O)[C@H](CCC(=O)O)NC(=O)[C@@H](NC(=O)[C@H](Cc1ccccc1)NC(=O)[C@H](CCC(=O)O)NC(=O)[C@H](CCCNC(=N)N)NC(=O)[C@@H](NC(=O)[C@H](C)NC(=O)[C@H](CCC(=O)O)NC(=O)[C@H](CCC(=O)O)NC(=O)[C@H](CCC(=O)O)NC(=O)[C@H](CC(C)C)NC(=O)[C@H](Cc1ccc(O)cc1)NC(=O)[C@H](CCCNC(=N)N)NC(=O)[C@H](CO)NC(=O)[C@@H](NC(=O)[C@@H](N)CC(=O)O)C(C)C)C(C)C)[C@@H](C)CC)C(C)C)C(N)=O` [compound 75] (H-DVSRYLEEEAVREFIEWLVRGGPSSGAPPPSK(Palmitoyl)-NH2; N-terminus assumed), the solubility in “Solubility in buffer” (pH 7.7) amounted to 18.6 mg/mL (≈ 4.9 mM). Also, at GLP-1R (setting [2]), the IC50 turned out to be 19 nM.

As to `CCCCCCCCCCCCCCCC(=O)NCCCC[C@H](NC(=O)[C@H](CO)NC(=O)[C@@H]1CCCN1C(=O)[C@@H]1CCCN1C(=O)[C@@H]1CCCN1C(=O)[C@H](C)NC(=O)CNC(=O)[C@H](CO)NC(=O)[C@H](CO)NC(=O)[C@@H]1CCCN1C(=O)CNC(=O)CNC(=O)[C@H](CCCNC(=N)N)NC(=O)[C@@H](NC(=O)[C@H](CC(C)C)NC(=O)[C@H](Cc1c[nH]c2ccccc12)NC(=O)[C@H](C)NC(=O)[C@@H](NC(=O)[C@H](Cc1ccccc1)NC(=O)[C@H](CCC(=O)O)NC(=O)[C@H](CCCNC(=N)N)NC(=O)[C@@H](NC(=O)[C@H](C)NC(=O)[C@H](CCC(=O)O)NC(=O)[C@H](CCC(=O)O)NC(=O)[C@H](CCC(=O)O)NC(=O)[C@H](CC(C)C)NC(=O)[C@H](Cc1ccc(O)cc1)NC(=O)[C@H](CO)NC(=O)[C@H](CO)NC(=O)[C@@H](NC(=O)[C@@H](N)CC(=O)O)C(C)C)C(C)C)[C@@H](C)CC)C(C)C)C(N)=O` [compound 71] (H-DVSSYLEEEAVREFIAWLVRGGPSSGAPPPSK(Palmitoyl)-NH2; N-terminus assumed), the solubility in the data set “Solubility in buffer” (pH 7.7) is > 20 mg/mL. Besides, the IC50 at GLP-1R (setting [2]) amounted to 18 nM.
